Measurements taken from patent US20210038577A1, “THIOREDOXIN REDUCTASE INHIBITORS FOR USE IN THE TREATMENT OF CANCER” (Cinda Pharma AB, priority 2018, published 2021).
Several values for one entry are separate records, joined by “and”; a condition that tells them apart may be missing. Identical values can stand only once.

Legend:
[1] = system: immune cells isolated from human blood donors (neutrophils, PBMC, monocytes, CD8+, CD4+, Tregs); assay: Viability of isolated immune cells (MTT assay); format: cell-based; settings: 24 h, up to 33 μM
Experimental: Viability of neutrophils after treatment with OT-1096 for 24 h was assessed using donated blood from a healthy volunteer (HBsAg, HIV I&II negative), (Blood collection date: 1 Jun. 2017) where neutrophils were isolated using dextran sedimentation followed by hypotonic lysis and final isolation by Histopaque 1077 (Sigma-Aldrich). Viability was assessed using an MTT assay.
Viability of PBMC (peripheral blood mononuclear cells) after treatment with OT-1096 for 24 h was assessed using donated blood from two different donors. Donor-1, a healthy volunteer (HBsAg, HIV I&II negative), (Blood collection date: 1 Jun. 2017). […] Viability was assessed using an MTT assay.
Viability of monocytes after treatment with OT-1096 for 24 h was assessed using donated blood from a healthy volunteer (HBsAg, HIV I&II negative), (Blood collection date: 8 Jun. 2017) where monocytes was isolated by Histopaque 1077 (Sigma-Aldrich) followed by purification with MiniMACS system of ‘Miltenyi Biotec’ using CD14 microbeads (Cat No. 130-050-201). Viability was assessed using an MTT assay. […]
Viability of CD4+ cells after treatment with OT-1096 for 24 h was assessed using donated blood from a healthy volunteer (HBsAg, HIV I&II negative) where CD4+ cells were isolated by Histopaque 1077 (Sigma-Aldrich) followed by purification with MiniMACS system of ‘Miltenyi Biotec’ using CD4+ T Cell Isolation Reagent (Cat No. 130-096-533). […]

[2] = system: TM00098 patient-derived xenografts (TNBC); assay: TM00098 patient derived TNBC xenografts in humanized Hu-CD34-NSG mice, tumor growth; format: in vivo
Excerpt: FIG. 11: Primary tumor growth of TM00098 patient derived triple-negative breast cancer xenografts in humanized immunocompetent NSG mice (Hu-CD34-NSG) treated with OT-1096 or vehicle control. A) Humanized NSG mice (Hu-CD34-NSG) engrafted with CD34+ cells from donor 5243 and subsequently implanted with TNBC PDX TM00098. B) Humanized NSG mice (Hu-CD34-NSG) engrafted with CD34+ cells from donor 5252 and subsequently implanted with TNBC PDX TM00098. Female NSG mice were implanted with human CD34+ hematopoietic stem cells from multiple donors and the level of human CD45+ cells were measured in the peripheral blood 12 weeks post engraftment. Mice with >25% human CD45+ cells in the peripheral blood were determined to have a humanized immune system (Hu-CD34-NSG™) mice and were enrolled into the study. […] Tumor volume was measured using a digital caliper two times a week for the duration of the study. […] Statistical significance (p<0.05) was determined using a Two-way repeated measures ANOVA with Sidak's multiple comparison test.
Athymic nude mice were inoculated orthotopically with 5×10^6 MDA-MB-231 breast cancer cells into the mammary fat pad, and randomized for treatment when tumors reached an average volume of 80-120 mm^3 (N=12 in each group). […] Xenograft tumor volume was assessed using caliper measurements for 25 days. […] Xenograft tumor volume was assessed using caliper measurements for 25 days. […]

MDA-MB-453 cells = assay: CellQuanti-Blue cell viability assay, MDA-MB-453; format: cell-based
Experimental: Cell viability was then assessed using the CellQuanti assay. Relative cell viability was determined using DMSO only and blank controls.
Cells were plated at 2000 cells/well into 96-well plates in media containing 10% FBS. […] CellQuanti-Blue cell viability reagent was added to each well and the plates were subsequently incubated at 37° C. for 3 hours. Viability was determined fluorometrically using an Enspire plate reader […] excitation: 530 nm, emission: 590 nm. Viability was normalized to DMSO controls and blank wells with media.

| Compound | cytotoxicity in isolated immune cell populations [1] | % TGI ([2]; 10 mg/kg three times a week intravenously, human immune cells from two separate donors, caliper) | mean tumor volume compared to vehicle ([2]; day 24 and 28 for CD34+ donor 5243, day 31 for donor 5252, p<0.05) | sensitivity of MDA-MB-453 cells over time of exposure (MDA-MB-453 cells; 24, 48, 72 hours (FIG. 2B)) | potency relative to Iniparib in MDA-MB-453 cells (MDA-MB-453 cells; CellQuanti-Blue, 24, 48 or 72 hours) |
| --- | --- | --- | --- | --- | --- |
| CCCCCCCCS(=O)(=O)c1nc(OC)ccc1[N+](=O)[O-] [OT-1096, 6-methoxy-3-nitro-2-(octylsulfonyl)pyridine] | No (or low) cytotoxicity | 45% and 55% | statistically significant | – | – |
| COc1ccc([N+](=O)[O-])c(S(=O)(=O)c2ccc(Cl)cc2)n1 [OT-1000, 2-((4-Chlorophenyl)sulfonyl)-6-methoxy-3-nitropyridine] | – | – | – | increasingly sensitive | more potent |
